In patent US20140179664A1, “Heterocyclyl Pyrimidine Analogues As JAK Inhibitors” (Cellzome Limited, priority 2011, published 2014):

Experiments:
Assay type in all cases: binding
JAK2 = molecular target: T1, JAK2 (Homo sapiens, UniProt O60674); assay: Kinobeads assay, JAK2; conditions: mixed Molt4/Ramos lysate, read-out: Inhibition values (IC50) JAK2
T1 construct: endogenous in cells; host or cells: Molt4 (ATCC CRL-1582) and Ramos (ATCC CRL-1596), mixed lysate 1:2
Experimental: (§1) The compounds of the present invention as described in the previous examples were tested in a Kinobeads™ assay as described for ZAP-70 (WO-A 2007/137867). Briefly, test compounds (at various concentrations) and the affinity matrix with the immobilized aminopyrido-pyrimidine ligand 24 were added to cell lysate aliquots and allowed to bind to the proteins in the lysate sample. After the incubation time the beads with captured proteins were separated from the lysate. Bound proteins were then eluted and the presence of JAK1, JAK2, JAK3 and TYK2 was detected and quantified using specific antibodies in a dot blot procedure and the Odyssey infrared detection system. Dose response curves for individual kinases were generated and IC50 values calculated. Kinobeads™ assays for ZAP-70 (WO-A 2007/137867) and for kinase selectivity profiling (WO-A 2006/134056) have been previously described.
(§2) The affinity matrix was washed two times with 15 mL of lx DP buffer containing 0.2% NP40 (IGEPAL® CA-630, Sigma, #13021) and then resuspended in 1×DP buffer containing 0.2% NP40 (3% beads slurry).
(§3) 5×DP buffer: 250 mM Tris-HCl pH 7.4, 25% Glycerol, 7.5 mM MgCl2, 750 mM NaCl, 5 mM Na3VO4; filter the 5×DP buffer through a 0.22 μm filter and store in aliquots at −80° C. The 5×DP buffer is diluted with H2O to 1×DP buffer containing 1 mM DTT and 25 mM NaF.
(§4) Stock solutions of test compounds were prepared in DMSO. In a 96 well plate […] solution of diluted test compounds at 5 mM in DMSO were prepared. Starting with this solution a 1:3 dilution series (9 steps) was prepared. For control experiments (no test compound) a buffer containing 2% DMSO was used.
(§5) Molt4 cells (ATCC catalogue number CRL-1582) and Ramos cells (ATCC catalogue number CRL-1596) were grown in 1 L Spinner flasks (Integra Biosciences, #182101) in suspension in RPMI 1640 medium (Invitrogen, #21875-034) supplemented with 10% Fetal Bovine Serum (Invitrogen) at a density between 0.15×10^6 and 1.2×10^6 cells/mL. Cells were harvested by centrifugation, washed once with 1×PBS buffer (Invitrogen, #14190-094) and cell pellets were frozen in liquid nitrogen and subsequently stored at −80° C. Cells were homogenized in a Potter S homogenizer in lysis buffer: 50 mM Tris-HCl, 0.8% NP40, 5% glycerol, 150 mM NaCl, 1.5 mM MgCl2, 25 mM NaF, 1 mM sodium vanadate, 1 mM DTT, pH 7.5. One complete EDTA-free tablet (protease inhibitor cocktail, Roche Diagnostics, 1873580) per 25 mL buffer was added. The material was dounced 10 times using a mechanized POTTER S, transferred to 50 mL falcon tubes, incubated for 30 minutes on ice and spun down for 10 minutes at 20,000 g at 4° C. (10,000 rpm in Sorvall SLA600, precooled). The supernatant was transferred to an ultracentrifuge (UZ)-polycarbonate tube (Beckmann, 355654) and spun for 1 hour at 100.000 g at 4° C. (33.500 rpm in Ti50.2, precooled). The supernatant was transferred again to a fresh 50 mL falcon tube, the protein concentration was determined by a Bradford assay (BioRad) and samples containing 50 mg of protein per aliquot were prepared. The samples were immediately used for experiments or frozen in liquid nitrogen and stored frozen at −80° C.
(§6) Cell lysate (approximately 50 mg protein per plate) was thawed in a water bath at room temperature and then stored on ice. To the thawed cell lysate 1×DP 0.8% NP40 buffer containing protease inhibitors (1 tablet for 25 mL buffer; EDTA-free protease inhibitor cocktail; Roche Diagnostics 1873580) was added in order to reach a final protein concentration of 10 mg/mL total protein. The diluted cell lysate was stored on ice. Mixed Molt4/Ramos lysate was prepared by combining one volume of Molt4 lysate and two volumes of Ramos lysate (ratio 1:2).
(§7) To a 96 well filter plate (Multiscreen HTS, BV Filter Plates, Millipore #MSBVN1250) were added per well: 100 μL affinity matrix (3% beads slurry), […], of compound solution, and 50 μL of diluted lysate. […]

JAK1 = molecular target: T2, JAK1 (Homo sapiens, UniProt P23458); assay: Kinobeads assay, JAK1; conditions: mixed Molt4/Ramos lysate, read-out: Inhibition values (IC50) JAK1
T2 construct: endogenous in cells; host or cells: Molt4 (ATCC CRL-1582) and Ramos (ATCC CRL-1596), mixed lysate 1:2
T2 sequence (P23458 whole entry): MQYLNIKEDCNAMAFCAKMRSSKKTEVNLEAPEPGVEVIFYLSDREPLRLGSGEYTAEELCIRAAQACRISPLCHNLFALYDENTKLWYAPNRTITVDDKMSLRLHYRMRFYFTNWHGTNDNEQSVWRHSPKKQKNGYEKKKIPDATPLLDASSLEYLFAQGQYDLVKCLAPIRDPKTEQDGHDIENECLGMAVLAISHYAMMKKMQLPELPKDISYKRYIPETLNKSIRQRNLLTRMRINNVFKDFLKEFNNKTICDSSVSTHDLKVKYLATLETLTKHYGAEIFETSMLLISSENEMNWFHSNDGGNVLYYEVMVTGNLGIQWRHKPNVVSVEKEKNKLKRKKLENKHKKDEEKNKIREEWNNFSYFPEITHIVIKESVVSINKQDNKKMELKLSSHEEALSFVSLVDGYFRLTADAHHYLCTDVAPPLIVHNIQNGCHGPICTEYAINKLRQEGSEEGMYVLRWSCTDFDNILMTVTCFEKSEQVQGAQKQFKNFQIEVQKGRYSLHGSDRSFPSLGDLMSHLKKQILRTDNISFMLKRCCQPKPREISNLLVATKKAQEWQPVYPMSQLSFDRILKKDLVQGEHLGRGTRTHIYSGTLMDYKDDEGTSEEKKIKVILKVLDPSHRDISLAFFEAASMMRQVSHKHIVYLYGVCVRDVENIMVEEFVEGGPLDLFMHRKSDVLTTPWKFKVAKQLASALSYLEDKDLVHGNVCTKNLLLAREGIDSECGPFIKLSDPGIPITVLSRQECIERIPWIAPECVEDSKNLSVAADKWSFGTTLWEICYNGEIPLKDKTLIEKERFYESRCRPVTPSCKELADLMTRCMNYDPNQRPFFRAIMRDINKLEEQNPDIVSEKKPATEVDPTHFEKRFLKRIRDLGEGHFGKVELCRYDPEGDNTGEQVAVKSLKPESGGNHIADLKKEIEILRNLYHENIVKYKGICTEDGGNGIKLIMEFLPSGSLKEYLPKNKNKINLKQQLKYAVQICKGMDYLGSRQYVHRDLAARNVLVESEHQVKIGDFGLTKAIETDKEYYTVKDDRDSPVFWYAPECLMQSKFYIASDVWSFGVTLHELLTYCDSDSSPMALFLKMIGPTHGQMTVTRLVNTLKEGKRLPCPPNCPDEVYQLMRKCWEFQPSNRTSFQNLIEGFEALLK
Experimental: After the incubation time the beads with captured proteins were separated from the lysate. Bound proteins were then eluted and the presence of JAK1, JAK2, JAK3 and TYK2 was detected and quantified using specific antibodies in a dot blot procedure and the Odyssey infrared detection system. Dose response curves for individual kinases were generated and IC50 values calculated.
as §3
Stock solutions of test compounds were prepared in DMSO. […] Starting with this solution a 1:3 dilution series (9 steps) was prepared. For control experiments (no test compound) a buffer containing 2% DMSO was used.
Cells were homogenized in a Potter S homogenizer in lysis buffer: 50 mM Tris-HCl, 0.8% NP40, 5% glycerol, 150 mM NaCl, 1.5 mM MgCl2, 25 mM NaF, 1 mM sodium vanadate, 1 mM DTT, pH 7.5. […] The material was dounced 10 times using a mechanized POTTER S, transferred to 50 mL falcon tubes, incubated for 30 minutes on ice and spun down for 10 minutes at 20,000 g at 4° C. (10,000 rpm in Sorvall SLA600, precooled). […] (33.500 rpm in Ti50.2, precooled). The supernatant was transferred again to a fresh 50 mL falcon tube, the protein concentration was determined by a Bradford assay (BioRad) and samples containing 50 mg of protein per aliquot were prepared. The samples were immediately used for experiments or frozen in liquid nitrogen and stored frozen at −80° C.
Cell lysate (approximately 50 mg protein per plate) was thawed in a water bath at room temperature and then stored on ice. […] The diluted cell lysate was stored on ice. Mixed Molt4/Ramos lysate was prepared by combining one volume of Molt4 lysate and two volumes of Ramos lysate (ratio 1:2).
Plates were sealed and incubated for 3 hours in a cold room on a plate shaker (Heidolph tiramax 1000) at 750 rpm. Afterwards the plate was washed 3 times with 230 μL washing buffer (1×DP 0.4% NP40). […] The eluate was frozen quickly at −80° C. and stored at −20° C.
Afterwards the membrane was washed twice for 10 minutes with PBS buffer containing 0.2% Tween 20 at room temperature. […] Afterwards the membrane was washed twice for 10 minutes each with 1×PBS buffer containing 0.2% Tween 20 at room temperature. Then the membrane was rinsed once with PBS buffer to remove residual Tween 20. The membrane was kept in PBS buffer at 4° C. and then scanned with the Odyssey instrument. Fluorescence signals were recorded and analysed according to the instructions of the manufacturer.

TYK2 = molecular target: T3, TYK2 (Homo sapiens, UniProt P29597); assay: Kinobeads assay, TYK2; conditions: mixed Molt4/Ramos lysate, read-out: Inhibition values (IC50) TYK2
T3 construct: endogenous in cells; host or cells: Molt4 (ATCC CRL-1582) and Ramos (ATCC CRL-1596), mixed lysate 1:2
T3 sequence (P29597 whole entry): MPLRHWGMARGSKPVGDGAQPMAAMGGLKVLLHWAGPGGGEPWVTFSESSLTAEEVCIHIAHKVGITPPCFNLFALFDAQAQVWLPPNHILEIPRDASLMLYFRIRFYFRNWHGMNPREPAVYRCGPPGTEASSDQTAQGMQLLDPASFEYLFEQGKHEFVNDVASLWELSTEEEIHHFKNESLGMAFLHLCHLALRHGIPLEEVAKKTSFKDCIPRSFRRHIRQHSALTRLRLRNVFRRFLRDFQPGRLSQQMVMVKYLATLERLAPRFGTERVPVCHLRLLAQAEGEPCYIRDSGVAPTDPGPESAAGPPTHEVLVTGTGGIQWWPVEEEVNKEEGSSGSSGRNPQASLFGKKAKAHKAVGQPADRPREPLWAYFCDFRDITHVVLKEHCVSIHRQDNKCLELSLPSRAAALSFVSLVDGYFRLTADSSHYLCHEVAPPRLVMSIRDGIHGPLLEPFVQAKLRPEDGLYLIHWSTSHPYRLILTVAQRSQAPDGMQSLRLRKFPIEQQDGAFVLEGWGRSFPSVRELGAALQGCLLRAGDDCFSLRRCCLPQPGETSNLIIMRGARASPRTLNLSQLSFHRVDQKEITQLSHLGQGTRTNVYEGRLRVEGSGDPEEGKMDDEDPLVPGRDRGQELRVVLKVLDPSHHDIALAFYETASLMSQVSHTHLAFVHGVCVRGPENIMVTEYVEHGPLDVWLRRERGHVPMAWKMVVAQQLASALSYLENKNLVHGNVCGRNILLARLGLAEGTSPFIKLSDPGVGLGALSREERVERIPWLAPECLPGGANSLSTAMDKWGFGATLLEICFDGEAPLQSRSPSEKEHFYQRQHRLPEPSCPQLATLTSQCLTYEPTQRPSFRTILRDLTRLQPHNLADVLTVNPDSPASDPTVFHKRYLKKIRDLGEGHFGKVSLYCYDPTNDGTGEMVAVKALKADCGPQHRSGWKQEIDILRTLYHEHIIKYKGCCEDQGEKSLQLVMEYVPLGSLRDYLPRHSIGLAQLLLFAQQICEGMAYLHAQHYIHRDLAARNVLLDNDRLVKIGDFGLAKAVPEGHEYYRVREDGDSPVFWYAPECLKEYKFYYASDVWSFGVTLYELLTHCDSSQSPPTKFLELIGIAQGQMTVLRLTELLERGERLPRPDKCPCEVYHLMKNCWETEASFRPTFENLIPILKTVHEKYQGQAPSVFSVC
Experimental: as §1, §2, §3, §4, §5, §6, §7

T1 sequence (O60674 whole entry): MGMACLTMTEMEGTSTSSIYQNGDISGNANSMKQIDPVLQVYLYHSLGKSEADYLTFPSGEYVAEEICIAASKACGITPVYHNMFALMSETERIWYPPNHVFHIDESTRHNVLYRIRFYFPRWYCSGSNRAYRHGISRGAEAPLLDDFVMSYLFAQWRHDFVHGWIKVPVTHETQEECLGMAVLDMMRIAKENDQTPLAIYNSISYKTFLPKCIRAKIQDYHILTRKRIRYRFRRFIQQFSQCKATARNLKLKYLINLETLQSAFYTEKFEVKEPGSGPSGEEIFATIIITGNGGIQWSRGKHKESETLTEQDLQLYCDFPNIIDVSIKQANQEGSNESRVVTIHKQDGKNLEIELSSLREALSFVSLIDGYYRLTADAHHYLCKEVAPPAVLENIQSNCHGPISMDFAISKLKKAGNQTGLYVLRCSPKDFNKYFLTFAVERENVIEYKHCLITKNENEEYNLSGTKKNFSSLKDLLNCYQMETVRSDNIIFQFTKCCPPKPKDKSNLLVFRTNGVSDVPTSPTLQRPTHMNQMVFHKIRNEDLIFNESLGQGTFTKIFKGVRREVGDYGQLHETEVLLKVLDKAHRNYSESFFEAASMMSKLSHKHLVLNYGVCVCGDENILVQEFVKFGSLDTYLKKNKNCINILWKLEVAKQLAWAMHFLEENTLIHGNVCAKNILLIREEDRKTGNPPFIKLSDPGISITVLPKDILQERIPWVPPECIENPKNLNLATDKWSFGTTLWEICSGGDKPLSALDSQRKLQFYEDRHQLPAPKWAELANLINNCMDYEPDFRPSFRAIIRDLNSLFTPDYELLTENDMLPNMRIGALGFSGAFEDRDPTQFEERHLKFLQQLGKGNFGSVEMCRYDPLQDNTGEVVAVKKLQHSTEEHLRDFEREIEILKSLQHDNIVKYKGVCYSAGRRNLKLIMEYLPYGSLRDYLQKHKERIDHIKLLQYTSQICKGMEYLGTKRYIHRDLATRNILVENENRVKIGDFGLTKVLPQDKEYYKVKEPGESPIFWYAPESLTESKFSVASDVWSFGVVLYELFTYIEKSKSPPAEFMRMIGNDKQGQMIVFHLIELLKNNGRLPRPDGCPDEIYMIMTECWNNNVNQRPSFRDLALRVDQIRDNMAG

IC50 (JAK2) [µM]	IC50 (JAK1) [µM]	IC50 (TYK2) [µM]	Structure (SMILES)
1 to 10	0.1 to 1	1 to 10	CNC(=O)Cn1cc(Nc2ncc(Cl)c(NC(CO)c3ccccc3Cl)n2)cn1 (stereo not drawn) [Compound 119]
1 to 10	0.1 to 1	0.1 to 1	OCCn1cc(Nc2ncc(Cl)c(NC(CO)c3ccccc3Cl)n2)cn1 (stereo not drawn) [Compound 120]
1 to 10	0.1 to 1	1 to 10	Cn1cc(Nc2ncc(Cl)c(NC(CO)c3cc(F)cc(F)c3)n2)cn1 (stereo not drawn) [Compound 121]
0.1 to 1	0.1 to 1	0.1 to 1	OCCn1cc(Nc2ncc(Cl)c(NC(CO)c3cc(F)cc(F)c3)n2)cn1 (stereo not drawn) [Compound 122]
1 to 10	0.1 to 1	1 to 10	CNC(=O)Cn1cc(Nc2ncc(Cl)c(NC(CO)c3cc(F)cc(F)c3)n2)cn1 (stereo not drawn) [Compound 123]
≥ 10	1 to 10	1 to 10	Cn1cc(Nc2ncc(Cl)c(NC(CO)c3cccc(N4CCOCC4=O)c3)n2)cn1 (stereo not drawn) [Compound 124]
1 to 10	1 to 10	1 to 10	CCC(Nc1nc(Nc2cnn(C)c2)ncc1Cl)c1ccccc1F (stereo not drawn) [Compound 125]
1 to 10	0.1 to 1	1 to 10	CCC(Nc1nc(Nc2cnn(CC(N)=O)c2)ncc1Cl)c1ccccc1F (stereo not drawn) [Compound 126]
1 to 10	1 to 10	1 to 10	CN(C)C(=O)C(Nc1nc(Nc2cnn(CCO)c2)ncc1Cl)c1ccccc1F (stereo not drawn) [Compound 127]
≥ 10	1 to 10	1 to 10	O=C(NCC(F)(F)F)C(Nc1nc(Nc2cnn(CCO)c2)ncc1Cl)c1ccccc1F (stereo not drawn) [Compound 128]
0.1 to 1	0.1 to 1	0.1 to 1	Cn1cc(Nc2ncc(Cl)c(NC(CO)c3cc(F)ccc3F)n2)cn1 (stereo not drawn) [Compound 129]
0.1 to 1	< 0.1	0.1 to 1	CNC(=O)Cn1cc(Nc2ncc(Cl)c(NC(CO)c3cc(F)ccc3F)n2)cn1 (stereo not drawn) [Compound 130]
1 to 10	1 to 10	0.1 to 1	CNC(=O)Cn1cc(Nc2ncc(Cl)c(NC(CO)c3ccccc3C(F)(F)F)n2)cn1 (stereo not drawn) [Compound 131]
0.1 to 1	< 0.1	0.1 to 1	NC(=O)Cn1cc(Nc2ncc(Cl)c(NC(CO)c3cc(F)ccc3F)n2)cn1 (stereo not drawn) [Compound 132]
1 to 10	1 to 10	1 to 10	CNC(=O)Cn1cc(Nc2ncc(C)c(N[C@H](CO)c3ccccc3)n2)cn1 [Compound 133]
1 to 10	0.1 to 1	1 to 10	Cc1cnc(Nc2cnn(CC(=O)N(C)C)c2)nc1N[C@H](CO)c1ccccc1 [Compound 134]
1 to 10	0.1 to 1	1 to 10	CN1CCC(n2cc(Nc3ncc(Cl)c(N[C@H](CO)c4ccccc4)n3)cn2)C1=O (stereo partly drawn) [Compound 135]
≥ 10	> 10	≥ 10	Cn1cc(Nc2ncc(Cl)c(N[C@H](CO)c3cccc(-c4cnn(C)c4)c3)n2)cn1 [Compound 136]
1 to 10	1 to 10	1 to 10	Cn1cc(Nc2ncc(Cl)c(N[C@H](CO)c3cc(F)cc(-c4cnn(C)c4)c3)n2)cn1 [Compound 137]
≥ 10	1 to 10	1 to 10	Cn1cc(Nc2ncc(Cl)c(N[C@H](CO)c3cccc(N4CCOCC4=O)c3)n2)cn1 [Compound 138]
0.1 to 1	0.1 to 1	0.1 to 1	Cn1cc(Nc2ncc(Cl)c(N[C@H](CO)c3cc(F)ccc3F)n2)cn1 [Compound 139]
0.1 to 1	< 0.1	0.1 to 1	NC(=O)Cn1cc(Nc2ncc(Cl)c(N[C@H](CO)c3cc(F)ccc3F)n2)cn1 [Compound 140]
0.1 to 1	< 0.1	0.1 to 1	CNC(=O)Cn1cc(Nc2ncc(Cl)c(N[C@H](CO)c3cc(F)ccc3F)n2)cn1 [Compound 141]
0.1 to 1	0.1 to 1	1 to 10	Cn1cc(Nc2ncc(Cl)c(N[C@H](CO)c3cc(F)cc(F)c3)n2)cn1 [Compound 142]
